Our source for the inhibition, IC50 and Activity values is ChEMBL document CHEMBL4725259 (Bioorg Med Chem, 2020).

Molecules are shown by their SMILES. Active and inactive are the calls of the source. No cut-off for these calls is given here.

For test [1], the target named is T1, Vasopressin V2 receptor (Homo sapiens, UniProt P30518). Nature of the test: Antagonist activity at human AVPR2 at 20 uM by PathHunter beta-arrestin assay relative to control. The conditions noted are these: filed as antagonist.
The target of test [2] is T2, C-C chemokine receptor type 3 (Homo sapiens) (UniProt P51677).
T2 sequence (whole entry): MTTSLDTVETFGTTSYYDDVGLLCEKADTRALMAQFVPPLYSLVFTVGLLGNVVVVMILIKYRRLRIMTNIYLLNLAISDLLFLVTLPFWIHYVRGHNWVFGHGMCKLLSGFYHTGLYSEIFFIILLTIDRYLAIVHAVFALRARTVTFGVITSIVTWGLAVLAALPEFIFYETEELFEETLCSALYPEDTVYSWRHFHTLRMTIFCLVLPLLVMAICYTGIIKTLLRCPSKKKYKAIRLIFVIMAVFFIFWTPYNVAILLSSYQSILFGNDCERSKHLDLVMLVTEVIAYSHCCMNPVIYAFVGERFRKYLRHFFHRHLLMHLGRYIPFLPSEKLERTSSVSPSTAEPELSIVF
Description: Antagonist activity at human CCR3 expressed in CHO-K1 cells at 20 uM by PathHunter beta-arrestin assay relative to control. The class given is cell-based. The conditions noted are these: filed as antagonist.

For test [3], the target named is T3, C-C chemokine receptor type 8 (Homo sapiens, UniProt P51685). Description: Antagonist activity at human CCR8 expressed in CHO-K1 cells at 20 uM by PathHunter beta-arrestin assay relative to control. The class given is cell-based. The conditions noted are these: filed as antagonist.
In test [4] the target is T4, CX3C chemokine receptor 1 (Homo sapiens) (UniProt P49238).
T4 sequence (whole entry): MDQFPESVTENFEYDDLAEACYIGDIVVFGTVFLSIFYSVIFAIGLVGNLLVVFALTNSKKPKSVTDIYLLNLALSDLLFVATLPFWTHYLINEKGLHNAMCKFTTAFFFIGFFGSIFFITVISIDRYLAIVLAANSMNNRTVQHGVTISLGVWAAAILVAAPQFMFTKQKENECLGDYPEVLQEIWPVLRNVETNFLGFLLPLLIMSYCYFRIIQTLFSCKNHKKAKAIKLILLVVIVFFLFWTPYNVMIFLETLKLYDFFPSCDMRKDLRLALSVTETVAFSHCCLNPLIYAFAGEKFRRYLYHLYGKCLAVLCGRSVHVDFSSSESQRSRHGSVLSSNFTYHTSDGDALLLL
Description: Antagonist activity at human CX3CR1 expressed in CHO-K1 cells at 20 uM by PathHunter beta-arrestin assay relative to control. The conditions noted are these: filed as antagonist. The class given is cell-based.

Test [5] concerns the target T5, C-X-C chemokine receptor type 4 (Homo sapiens, UniProt P61073). Nature of the test: Antagonist activity at human CXCR4 expressed in mouse C2C12 cells at 20 uM by PathHunter beta-arrestin assay relative to control. The test is classed as cell-based. The following applies: filed as antagonist.
The target in test [6] is D(2) dopamine receptor (Homo sapiens) (UniProt P14416). Description: Antagonist activity at human DRD2L expressed in CHO-K1 cells at 20 uM by PathHunter beta-arrestin assay relative to control. The test is classed as cell-based. The following applies: filed as antagonist.
Test [7] has as its target T6, Follicle-stimulating hormone receptor (Homo sapiens) (UniProt P23945).
T6 sequence (whole entry): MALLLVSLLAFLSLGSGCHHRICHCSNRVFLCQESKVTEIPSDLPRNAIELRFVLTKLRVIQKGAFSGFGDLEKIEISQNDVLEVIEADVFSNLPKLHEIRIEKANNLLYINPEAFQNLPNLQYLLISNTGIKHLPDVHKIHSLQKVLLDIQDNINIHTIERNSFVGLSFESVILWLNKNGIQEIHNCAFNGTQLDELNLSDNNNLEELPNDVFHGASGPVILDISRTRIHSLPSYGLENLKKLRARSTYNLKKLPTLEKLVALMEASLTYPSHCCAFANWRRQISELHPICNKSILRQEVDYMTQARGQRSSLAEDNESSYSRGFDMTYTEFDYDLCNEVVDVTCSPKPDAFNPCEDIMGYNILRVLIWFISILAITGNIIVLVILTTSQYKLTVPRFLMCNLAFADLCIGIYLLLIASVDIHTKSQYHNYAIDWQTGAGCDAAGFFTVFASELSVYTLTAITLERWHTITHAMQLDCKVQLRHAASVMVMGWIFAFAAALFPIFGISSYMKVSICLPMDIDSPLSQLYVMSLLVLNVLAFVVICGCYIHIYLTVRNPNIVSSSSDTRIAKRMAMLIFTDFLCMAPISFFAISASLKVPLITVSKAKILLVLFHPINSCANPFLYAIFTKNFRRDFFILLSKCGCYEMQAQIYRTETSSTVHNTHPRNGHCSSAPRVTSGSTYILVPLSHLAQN
Nature of the test: Antagonist activity at human FSHR expressed in CHO-K1 cells at 20 uM by PathHunter beta-arrestin assay relative to control. The class given is cell-based. The conditions noted are these: filed as antagonist.

The test system of test [8] is U2OS. Description: Antagonist activity at NPSR1B in human U2OS cells at 20 uM by PathHunter beta-arrestin assay relative to control. The following applies: filed as antagonist. The class given is cell-based.
In test [9] the target is T7, Oxytocin receptor (Homo sapiens) (UniProt P30559).
T7 sequence (whole entry): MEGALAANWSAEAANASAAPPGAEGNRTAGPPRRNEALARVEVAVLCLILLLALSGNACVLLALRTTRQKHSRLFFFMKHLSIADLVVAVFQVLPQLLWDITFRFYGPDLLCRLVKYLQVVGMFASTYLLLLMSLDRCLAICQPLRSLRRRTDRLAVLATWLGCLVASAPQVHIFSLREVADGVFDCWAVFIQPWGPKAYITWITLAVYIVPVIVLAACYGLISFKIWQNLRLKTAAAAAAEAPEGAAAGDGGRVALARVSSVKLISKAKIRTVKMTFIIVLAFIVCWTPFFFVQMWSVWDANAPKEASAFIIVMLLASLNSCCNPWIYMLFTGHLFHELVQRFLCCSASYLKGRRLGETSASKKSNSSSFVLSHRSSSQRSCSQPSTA
Description: Antagonist activity at human OXTR expressed in CHO-K1 cells at 20 uM by PathHunter beta-arrestin assay relative to control. The test is classed as cell-based.

Test [10] has as its target T8, Prolactin-releasing peptide receptor (Homo sapiens) (UniProt P49683).
T8 sequence (whole entry): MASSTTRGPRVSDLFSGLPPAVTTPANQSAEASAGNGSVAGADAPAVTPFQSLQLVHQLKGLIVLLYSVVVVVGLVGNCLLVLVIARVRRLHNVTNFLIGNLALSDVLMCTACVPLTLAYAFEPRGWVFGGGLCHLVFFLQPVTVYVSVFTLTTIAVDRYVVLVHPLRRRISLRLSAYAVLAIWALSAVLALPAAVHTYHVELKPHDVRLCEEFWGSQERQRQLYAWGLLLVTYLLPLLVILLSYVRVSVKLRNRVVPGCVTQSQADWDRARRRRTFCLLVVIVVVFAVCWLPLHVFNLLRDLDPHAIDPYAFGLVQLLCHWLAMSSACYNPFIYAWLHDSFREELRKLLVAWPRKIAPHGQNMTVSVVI
Description: Antagonist activity at human PRLHR expressed in CHO-K1 cells at 20 uM by PathHunter beta-arrestin assay relative to control. The class given is cell-based. The conditions noted are these: filed as antagonist.

Test [11] has as its target T9, Follicle-stimulating hormone receptor (Homo sapiens, UniProt P23945).
T9 sequence (P23945 whole entry): T6 sequence (whole entry)
Nature of the test: Antagonist activity at human FSHR expressed in CHO-K1 cells by PathHunter beta-arrestin assay. The class given is cell-based.

Test [12] can be described thus: Antagonist activity at NPSR1B in human U2OS cells by PathHunter beta-arrestin assay. The class given is cell-based.
The target of test [13] is T10, Prolactin-releasing peptide receptor (Homo sapiens, UniProt P49683).
T10 sequence (P49683 whole entry): T8 sequence (whole entry)
Description: Antagonist activity at human PRLHR expressed in CHO-K1 cells by PathHunter beta-arrestin assay. The class given is cell-based.

Test [14] has as its target T1, Vasopressin V2 receptor. Nature of the test: Agonist activity at human AVPR2 at 20 uM by PathHunter beta-arrestin assay relative to control.
Test [15] concerns the target T2, C-C chemokine receptor type 3 (Homo sapiens). Nature of the test: Agonist activity at human CCR3 expressed in CHO-K1 cells at 20 uM by PathHunter beta-arrestin assay relative to control. The test is classed as cell-based.
The target in test [16] is T3, C-C chemokine receptor type 8. Nature of the test: Agonist activity at human CCR8 expressed in CHO-K1 cells at 20 uM by PathHunter beta-arrestin assay relative to control. The class given is cell-based.
Test [17] has as its target T4, CX3C chemokine receptor 1 (Homo sapiens). Description: Agonist activity at human CX3CR1 expressed in CHO-K1 cells at 20 uM by PathHunter beta-arrestin assay relative to control. The class given is cell-based.
The target of test [18] is T5, C-X-C chemokine receptor type 4. Description: Agonist activity at human CXCR4 expressed in mouse C2C12 cells at 20 uM by PathHunter beta-arrestin assay relative to control. The class given is cell-based.
In test [19] the target is D(2) dopamine receptor (Homo sapiens) (UniProt P14416). Nature of the test: Agonist activity at human DRD2L expressed in CHO-K1 cells at 20 uM by PathHunter beta-arrestin assay relative to control. The test is classed as cell-based.
The target in test [20] is T6, Follicle-stimulating hormone receptor (Homo sapiens). Description: Agonist activity at human FSHR expressed in CHO-K1 cells at 20 uM by PathHunter beta-arrestin assay relative to control. The test is classed as cell-based.
The test system of test [21] is U2OS. Nature of the test: Agonist activity at NPSR1B in human U2OS cells at 20 uM by PathHunter beta-arrestin assay relative to control. The class given is cell-based.
Test [22] has as its target T7, Oxytocin receptor (Homo sapiens). Nature of the test: Agonist activity at human OXTR expressed in CHO-K1 cells at 20 uM by PathHunter beta-arrestin assay relative to control. The class given is cell-based.
In test [23] the target is T8, Prolactin-releasing peptide receptor (Homo sapiens). Description: Agonist activity at human PRLHR expressed in CHO-K1 cells at 20 uM by PathHunter beta-arrestin assay relative to control. The test is classed as cell-based.

T5 sequence (P61073 whole entry): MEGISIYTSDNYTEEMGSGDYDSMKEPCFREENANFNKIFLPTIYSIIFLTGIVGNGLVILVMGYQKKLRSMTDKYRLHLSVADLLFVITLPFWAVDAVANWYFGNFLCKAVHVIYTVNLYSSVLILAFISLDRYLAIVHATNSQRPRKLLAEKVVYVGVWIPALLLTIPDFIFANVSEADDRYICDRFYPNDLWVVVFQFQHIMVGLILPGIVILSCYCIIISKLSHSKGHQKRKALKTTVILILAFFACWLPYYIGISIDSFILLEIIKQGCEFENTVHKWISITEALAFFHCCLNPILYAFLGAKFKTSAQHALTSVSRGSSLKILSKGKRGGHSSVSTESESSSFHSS
T3 sequence (P51685 whole entry): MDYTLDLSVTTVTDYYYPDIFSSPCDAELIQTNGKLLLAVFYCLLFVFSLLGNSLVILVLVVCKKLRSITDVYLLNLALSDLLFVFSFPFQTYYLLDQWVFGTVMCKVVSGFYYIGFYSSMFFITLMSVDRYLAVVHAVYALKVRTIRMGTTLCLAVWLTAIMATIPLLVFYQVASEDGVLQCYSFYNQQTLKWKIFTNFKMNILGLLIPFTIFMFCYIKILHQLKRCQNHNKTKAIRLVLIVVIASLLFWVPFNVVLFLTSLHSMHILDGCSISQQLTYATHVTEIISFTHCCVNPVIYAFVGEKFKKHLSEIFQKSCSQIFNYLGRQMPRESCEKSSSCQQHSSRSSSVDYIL
T1 sequence (P30518 whole entry): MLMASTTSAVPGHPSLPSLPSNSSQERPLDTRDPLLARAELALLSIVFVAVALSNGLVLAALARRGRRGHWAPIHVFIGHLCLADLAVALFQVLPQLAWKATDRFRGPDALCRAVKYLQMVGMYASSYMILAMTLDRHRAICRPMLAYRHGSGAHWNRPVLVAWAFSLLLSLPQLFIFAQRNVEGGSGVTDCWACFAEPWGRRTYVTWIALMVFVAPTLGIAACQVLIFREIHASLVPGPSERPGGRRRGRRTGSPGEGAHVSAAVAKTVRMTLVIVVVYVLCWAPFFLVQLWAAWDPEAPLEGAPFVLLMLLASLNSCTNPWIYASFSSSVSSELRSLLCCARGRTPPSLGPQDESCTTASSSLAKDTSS
D(2) dopamine receptor (Homo sapiens), sequence (P14416 whole entry): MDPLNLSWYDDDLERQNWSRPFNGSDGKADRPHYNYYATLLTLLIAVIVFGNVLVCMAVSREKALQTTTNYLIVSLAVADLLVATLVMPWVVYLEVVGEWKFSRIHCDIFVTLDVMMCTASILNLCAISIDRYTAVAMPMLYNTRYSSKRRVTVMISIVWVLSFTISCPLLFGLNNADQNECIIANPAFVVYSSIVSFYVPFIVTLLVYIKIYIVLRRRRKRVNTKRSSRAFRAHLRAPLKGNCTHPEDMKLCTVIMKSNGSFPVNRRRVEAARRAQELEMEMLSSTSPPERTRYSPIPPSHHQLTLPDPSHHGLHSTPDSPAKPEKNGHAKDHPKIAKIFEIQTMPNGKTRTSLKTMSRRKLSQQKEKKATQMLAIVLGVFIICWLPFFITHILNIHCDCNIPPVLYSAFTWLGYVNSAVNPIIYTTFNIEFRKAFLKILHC

The term inhibition denotes the relative decrease from the control value, in per cent. By IC50 is commonly meant the concentration at which inhibition is half-maximal. Turning to `COC(=O)[C@@H]1[C@H]2C[C@@H](OCc3ccc(Br)cc3)c3[nH]c4ccccc4c3CCN(C#N)C[C@@H]2CC[C@@H]1O`, the inhibition at Vasopressin V2 receptor [1] was 1%; in test [2], 50%; in [3] it was 78%; in test [4], 53%; in [5], 29%; in [6], 10%. Also, the inhibition in test [7] was 94%; with U2OS [8], 87%; in test [9] it was -7%; in test [10] it was 82%. For the same compound, the values for the IC50 in test [11], in [12] and in [13] were 8.03 µM, 10.3 µM and 4.89 µM, respectively. The outcome (at Vasopressin V2 receptor [14]; in test [15]; in test [16]; in [17]; in test [18]; in test [19]) was inactive. Further, the result (in test [20]; in the test on U2OS [21]; in test [22]; in test [23]) was inactive.
